Drawing on ChEMBL document CHEMBL4177735, “Design, synthesis and pharmacological evaluation of new acyl sulfonamides as potent and selective Bcl-2 inhibitors” (Bioorg Med Chem, 2018), this text covers IC50 and Ratio IC50 for 18 compounds.

One experiment addresses Bcl-2-like protein 1 (Homo sapiens, UniProt Q07817). In words: Displacement of Bad-derived peptide from Bcl-XL (unknown origin) by fluorescence polarization assay. In general terms: Fluorescence polarisation rises when a labelled molecule tumbles more slowly, as on binding a larger partner.
Experiment [1] deals with Apoptosis regulator Bcl-2 (Homo sapiens, UniProt P10415). In words: Displacement of Bax-derived peptide from Bcl-2 (unknown origin) by fluorescence polarization assay.
Chain of Apoptosis regulator Bcl-2 (P10415 whole entry): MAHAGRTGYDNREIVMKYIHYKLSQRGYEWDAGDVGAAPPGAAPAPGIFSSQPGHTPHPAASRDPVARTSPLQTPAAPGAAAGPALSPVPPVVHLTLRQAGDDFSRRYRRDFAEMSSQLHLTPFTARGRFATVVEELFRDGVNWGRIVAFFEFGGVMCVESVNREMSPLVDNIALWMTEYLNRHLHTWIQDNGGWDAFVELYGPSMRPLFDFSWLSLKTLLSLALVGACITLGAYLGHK
The species entered for the next experiment is Homo sapiens. In words: Selectivity factor, ratio of IC50 for Bad-derived peptide from Bcl-XL (unknown origin) to IC50 for displacement of Bax-derived peptide from Bcl-2 (unknown origin).

Chain of Bcl-2-like protein 1 (Q07817 whole entry): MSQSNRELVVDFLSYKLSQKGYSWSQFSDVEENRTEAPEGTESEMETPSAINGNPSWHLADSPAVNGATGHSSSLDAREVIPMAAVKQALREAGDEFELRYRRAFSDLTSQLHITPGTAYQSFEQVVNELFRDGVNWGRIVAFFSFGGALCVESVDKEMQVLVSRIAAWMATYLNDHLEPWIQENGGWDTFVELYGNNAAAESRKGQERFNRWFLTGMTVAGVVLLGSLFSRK

A word on the IC50: it is the midpoint of a concentration-inhibition curve. Read a low IC50 as greater potency. For the compound `CC1(C)CCC(c2ccc(Cl)cc2)=C(CN2CCN(c3ccc(C(=O)NS(=O)(=O)c4ccc(NC5(CN6CCOCC6)CC5)c(S(=O)(=O)C(F)(F)F)c4)cc3)CC2)C1`, the IC50 was 55.3 nM at Bcl-2-like protein 1 and 40.7 nM in experiment [1]. Also, the Ratio IC50 in the experiment filed under Homo sapiens is 1.36.

In the case of `CC1(C)CCC(c2ccc(Cl)cc2)=C(CN2CCN(c3ccc(C(=O)NS(=O)(=O)c4ccc(OCC5(CN6CC(F)(F)C6)COC5)c(S(=O)(=O)C(F)(F)F)c4)cc3)CC2)C1`, the IC50 on Bcl-2-like protein 1 stood at 105 nM; in experiment [1] it was 17.3 nM. Further, the Ratio IC50 in the experiment listed under Homo sapiens stood at 6.06.

As to `CC1(C)CCC(c2ccc(Cl)cc2)=C(CN2CCN(c3ccc(C(=O)NS(=O)(=O)c4ccc(N[C@@H](CC5CC5)C(=O)N5CCOCC5)c(S(=O)(=O)C(F)(F)F)c4)cc3)CC2)C1`, the IC50 at Bcl-2-like protein 1 was determined as 59.3 nM; in experiment [1] it was 68.2 nM. In addition, the Ratio IC50 in the experiment filed under Homo sapiens came out at 0.87.

Take `CC1(C)CCC(c2ccc(Cl)cc2)=C(CN2CCN(c3ccc(C(=O)NS(=O)(=O)c4ccc(N[C@@H](CC5CC5)CN5CCOCC5)c(S(=O)(=O)C(F)(F)F)c4)cc3)CC2)C1`: the figures for the IC50 (at Bcl-2-like protein 1; in experiment [1]) were 33.5 nM and 20.7 nM, respectively. For the same compound, the Ratio IC50 in the experiment filed under Homo sapiens is 1.62.

Regarding `CN1CCN(S(=O)(=O)NC(=O)c2ccc(N3CCN(CC4=C(c5ccc(Cl)cc5)CCC(C)(C)C4)CC3)cc2)CC1`, the half-maximal inhibitory concentration (IC50) on Bcl-2-like protein 1 is over 1000 nM; in experiment [1], 168 nM. In addition, the Ratio IC50 in the experiment listed under Homo sapiens was over 5.93.

In the case of `CC1(C)CCC(c2ccc(Cl)cc2)=C(CN2CCc3ccc(C(=O)NS(=O)(=O)c4ccc(N[C@H](CCN5CCOCC5)CSc5ccccc5)c(S(=O)(=O)C(F)(F)F)c4)cc3CC2)C1`, the values for the half-inhibitory concentration (IC50) (at Bcl-2-like protein 1; in experiment [1]) were 25.6 nM and 193 nM, respectively. For the same compound, in the experiment filed under Homo sapiens, the Ratio IC50 was 0.13.

As to `CC1(C)CCC(c2ccc(Cl)cc2)=C(CN2CCc3cc(C(=O)NS(=O)(=O)c4ccc(N[C@H](CCN5CCOCC5)CSc5ccccc5)c(S(=O)(=O)C(F)(F)F)c4)ccc3C2)C1`, the IC50 at Bcl-2-like protein 1 was determined as 14.6 nM; in experiment [1], 12.6 nM. Further, the Ratio IC50 in the experiment listed under Homo sapiens was found to be 1.15.

As to `CC1(C)CCC(c2ccc(Cl)cc2)=C(CN2CCN(c3ccc(C(=O)NS(C)(=O)=O)cc3)CC2)C1`, the IC50 at Bcl-2-like protein 1 is over 1000 nM; in experiment [1] it was 495 nM. For the same compound, the Ratio IC50 in the experiment listed under Homo sapiens is over 2.02.

On to `CC1(C)CCC(c2ccc(Cl)cc2)=C(CNC2(Cn3cnc4cc(C(=O)NS(=O)(=O)c5ccc(N[C@H](CCN6CCOCC6)CSc6ccccc6)c(S(=O)(=O)C(F)(F)F)c5)ccc43)CC2)C1`, for which the IC50 on Bcl-2-like protein 1 was found to be 29.3 nM; in experiment [1], 108 nM. In the experiment filed under Homo sapiens, the Ratio IC50 was found to be 0.27.

Turning to `CC1(C)CCC(c2ccc(Cl)cc2)=C(CN2CCN(c3ccc(C(=O)NS(=O)(=O)c4ccc(NC5(CN6CC(F)(F)C6)CC5)c(S(=O)(=O)C(F)(F)F)c4)cc3)CC2)C1`, the IC50 was determined as 342 nM on Bcl-2-like protein 1 and 34.8 nM in experiment [1]. The Ratio IC50 in the experiment filed under Homo sapiens came to 9.83.

Consider `CC1(C)CCC(c2ccc(Cl)cc2)=C(CNC2(Cn3cnc4ccc(C(=O)NS(=O)(=O)c5ccc(N[C@H](CCN6CCOCC6)CSc6ccccc6)c(S(=O)(=O)C(F)(F)F)c5)cc43)CC2)C1`, for which the IC50 (on Bcl-2-like protein 1; in experiment [1]) was over 1000 nM in each case.

Consider `Cn1ccc(S(=O)(=O)NC(=O)c2ccc(N3CCN(CC4=C(c5ccc(Cl)cc5)CCC(C)(C)C4)CC3)cc2)n1`, for which the values for the IC50 (at Bcl-2-like protein 1; in experiment [1]) were over 1000 nM and 67.4 nM, respectively. For the same compound, the Ratio IC50 in the experiment filed under Homo sapiens is over 14.8.

In the case of `CC1(C)CCC(c2ccc(Cl)cc2)=C(CN2CCN(c3ccc(C(=O)NS(=O)(=O)c4ccc(OCC5(CN6CCOCC6)COC5)c(S(=O)(=O)C(F)(F)F)c4)cc3)CC2)C1`, the IC50 at Bcl-2-like protein 1 was determined as 49.3 nM; in experiment [1] it was 14.5 nM. Besides, the Ratio IC50 in the experiment filed under Homo sapiens worked out at 3.4.

As for `CC1(C)CCC(c2ccc(Cl)cc2)=C(CN2CCN(c3ccc(C(=O)NS(=O)(=O)c4ccc(N5CC(F)(F)C5)c(S(=O)(=O)C(F)(F)F)c4)cc3)CC2)C1`, the IC50 at Bcl-2-like protein 1 was determined as 162 nM; in experiment [1], 46.6 nM. In addition, in the experiment listed under Homo sapiens, the Ratio IC50 came out at 3.48.

Consider `CC1(C)CCC(c2ccc(Cl)cc2)=C(CN2CCc3sc(C(=O)NS(=O)(=O)c4ccc(N[C@H](CCN5CCOCC5)CSc5ccccc5)c(S(=O)(=O)C(F)(F)F)c4)cc3C2)C1`, for which the figures for the IC50 (at Bcl-2-like protein 1; in experiment [1]) were 26.6 nM and 57.9 nM, respectively. For the same compound, the Ratio IC50 in the experiment filed under Homo sapiens is 0.46.

Turning to `CC1(C)CCC(c2ccc(Cl)cc2)=C(CN2CCc3nc(C(=O)NS(=O)(=O)c4ccc(N[C@H](CCN5CCOCC5)CSc5ccccc5)c(S(=O)(=O)C(F)(F)F)c4)sc3C2)C1`, the IC50 was 13.2 nM at Bcl-2-like protein 1 and 38.1 nM in experiment [1]. Further, the Ratio IC50 in the experiment listed under Homo sapiens came to 0.35.

On to `CN(CCO)c1ccc(S(=O)(=O)NC(=O)c2ccc(N3CCN(CC4=C(c5ccc(Cl)cc5)CCC(C)(C)C4)CC3)cc2)cc1S(=O)(=O)C(F)(F)F`, for which the IC50 at Bcl-2-like protein 1 came to 116 nM; in experiment [1] it was 46 nM. In the experiment filed under Homo sapiens, the Ratio IC50 came to 2.53.

Turning to `CN(C)c1ccc(S(=O)(=O)NC(=O)c2ccc(N3CCN(CC4=C(c5ccc(Cl)cc5)CCC(C)(C)C4)CC3)cc2)cc1S(=O)(=O)C(F)(F)F`, the figures for the IC50 (on Bcl-2-like protein 1; in experiment [1]) were 218 nM and 65.1 nM, respectively. The Ratio IC50 in the experiment listed under Homo sapiens is 3.34.
